Measured values from patent EP4631957A1, “PEPTIDE FOR CARTILAGE REGENERATION, AND USES THEREOF” (Caregen Co., Ltd., priority 2022, dated 2024).
Where a SMILES comes first, the peptide text is derived from it. Where no end group is shown, it is not given here.

System: C28/I2 cells
Experiment: CCK-8 cytotoxicity assay in human-derived chondrocytes
Type: cell-based
Details: peptide at different concentrations, 3 days, read at 450 nm, FIG. 1 and FIG. 2
Experimental: The cytotoxicity of Peptide-1 or Peptide-2 upon addition to human-derived chondrocytes (C28/I2, human chondrocyte cell line) was analyzed using a CCK-8 assay.
Specifically, human-derived chondrocytes were seeded in a 96-well plate at a density of 3 × 10^3 cells/well and cultured in DMEM medium (cat. 11995-065, Gibco) for 24 hours. […] Meanwhile, as a negative control group (CON), an experimental group to which the peptide was not added was used.

| Compound | toxicity in human-derived chondrocytes (CCK-8 activity) |
| --- | --- |
| TAVRVG [Peptide-2] | did not exhibit toxicity |
| N=C(N)NCCC[C@H](N)C(=O)N[C@@H](Cc1ccc(O)cc1)C(=O)N[C@@H](Cc1ccccc1)C(=O)O [Peptide-1, Arg(R)-Tyr(Y)-Phe(F)] (H-Arg-Tyr-Phe-OH) | did not exhibit toxicity |
